Measured values published in patent US10526580B2, “Differentiated cell population of endothelial cells derived from human pluripotent stem cells, composition, system, kit and uses thereof” (BIOCANT-ASSOCIAÇÃO DE TRANSFERÊNCIA DE TECNOLOGIA, priority 2012, dated 2020).

Assays:
[1] = tested on: kinase activity of HUAECs; assay: Kinase-Glo Luminescence Kinase Assay of cells; format: cell-based, human; details: 24 h incubation, 0.1 or 1 μM
Protocol: (§1) The kinase activity of the hESC-derived ECs and HUAECs was assessed by luminescence (signal is inversely correlated with the level of kinase activity) in the absence or presence of the compound 7-Cyclo (FIG. 6D).
(§2) The kinase activity of cells was measured by a Kinase-Glo® Luminescence Kinase Assay (Promega). Cells incubated with 7-Cyclo for 24 h were treated with the kinase reagent from the kit and luminescence acquired using a Spectra Max Gemini luminometer. The luminescence signal is correlated with the amount of ATP present and its inversely correlated with the amount of kinase activity.

[2] = tested on: kinase activity of hESC-derived ECs; assay: Kinase-Glo Luminescence Kinase Assay of cells; format: cell-based, human; details: 24 h incubation, 0.1 or 1 μM
Protocol: as §1, §2

HUAECs = assay: 7-Cyclo in PDMS microfluidic system, static or flow (qRT-PCR, ELISA); format: cell-based, human; details: flow 20 dyne/cm2, 1 μM for 24 h
Protocol: For the 7-cyclo studies the flow experiments were carried out in a microfluidic system developed by us. The microfluidic device was obtained using a cylindrical mold of 20 Gauge. Polydimethylsiloxane (PDMS) (Sylgard 184 Silicone elastomere base) was mixed at a 10:1 ratio (w/w) with curing agent (Sylgard 184 Silicon Elastomer Curing Agent) and the solution was poured onto a mold (20 gauge needle laid on a plastic dish) and cured at 80° C. for about 3 h. The microchannel was cut to 0.5 cm length (900 μm inner diameter) and treated with Plasma Clean (Electronic Diener Femto Plasma Surface Technology version 5) for 2 min with argon gas (2 mBar) before immersing it in a solution of 0.1% gelatin. […]
(§3) Evaluation of the levels of vascular injury by specific markers. ELISA kits analyzed supernatants collected from the shear stress experiments for vWF and vWFpp (Gen-Probe GTI Diagnostic) and ADMA (Enzo Life Sciences), according to manufacturer's recommendations.
To evaluate the effects of 7-Cyclo in flow conditions, hESC-derived ECs were cultured in a poly(dimethylsiloxane) (PDMS) microfluidic system with cylindrical channels for 7 days at 20 dyne/cm2 (FIG. 5A). […] At day 7, cells were exposed to EGM-2 medium supplemented with 1 μM of 7-Cyclo for 24 h, and finally analyzed at morphological, genetic and secretion levels. […]

[3] = tested on: HUVECs and lymphatic EC tube formation; details: 1 μM, in vitro; cited from earlier work
hESC-derived ECs = assay: 7-Cyclo in PDMS microfluidic system, static or flow (morphology, qRT-PCR, ELISA); format: cell-based, human
Protocol: For the 7-cyclo studies the flow experiments were carried out in a microfluidic system developed by us. The microfluidic device was obtained using a cylindrical mold of 20 Gauge. Polydimethylsiloxane (PDMS) (Sylgard 184 Silicone elastomere base) was mixed at a 10:1 ratio (w/w) with curing agent (Sylgard 184 Silicon Elastomer Curing Agent) and the solution was poured onto a mold (20 gauge needle laid on a plastic dish) and cured at 80° C. for about 3 h. The microchannel was cut to 0.5 cm length (900 μm inner diameter) and treated with Plasma Clean (Electronic Diener Femto Plasma Surface Technology version 5) for 2 min with argon gas (2 mBar) before immersing it in a solution of 0.1% gelatin. HESC-derived ECs (20×10^6 cells/mL) or HUAECs were seeded on PDMS microchannels (3.18 μL cell suspension per channel) devices and grown until confluence. Using a programmed IBIDI pump with positive pressure, the cell monolayer was perfused with EGM-2 medium for 7 days; shear stress of 20 dyne/cm2 (. After 7 days the flow was stopped, the cells imaged, and then stained or collected for posterior gene analysis. Medium was collected for ELISA assays. In some experiments, cells were cultured in medium supplemented with 1 μM 7-cyclo (Sigma) for an additional time of 24 h, under shear stress. Static controls were carried out in the microfluidic system but without flow.
as §3
To evaluate the effects of 7-Cyclo in flow conditions, hESC-derived ECs were cultured in a poly(dimethylsiloxane) (PDMS) microfluidic system with cylindrical channels for 7 days at 20 dyne/cm2 (FIG. 5A). ECs were able to form a confluent monolayer in the entire inner surface of the channel after 48 h. At day 7, cells were exposed to EGM-2 medium supplemented with 1 μM of 7-Cyclo for 24 h, and finally analyzed at morphological, genetic and secretion levels. […] Importantly, hESC-derived ECs cultured under flow conditions in the presence of 7-Cyclo secrete higher levels of ADMA (2.5 fold) and vWFpp:vWF (1.6 fold) than without the drug, and significant higher levels of ADMA than HUAECs.

[4] = tested on: mouse aortic endothelial cells (mAEC); assay: Gene expression in mouse aortic endothelial cells after 7-Cyclo; format: cell-based
Protocol: To further validate the effects of 7-Cyclo at the embryonic vasculature, mouse embryonic ECs were incubated at day 12.5 (mAEC E12.5) and postnatal day 1 (p1) with 7-Cyclo (1 μM) for 24 h. […] In contrast, 7-Cyclo has no effect in p1 ECs. The degree of action of 7-Cyclo in mAEC E12.5 is similar to the one identified in hESC-derived ECs (FIG. 5C).
Total RNA from experimental groups was isolated using a protocol with TRIzol (Invitrogen) and RNeasy Minikit (Qiagen, Valencia). cDNA was prepared from 1 μg total RNA using Taqman Reverse transcription reagents (Applied Biosystems, CA). Quantitative PCR (qPCR) was performed using Power SYBR Green PCR Master Mix and the detection using an ABI PRISM 7500 Fast System (Applied Biosystems). Quantification of target genes was performed relative to the reference GAPDH gene: relative expression=2^[−(Ctsample^−CtGADPH^)]. The mean minimal cycle threshold values (Ct) were calculated from 4 reactions. In some cases, gene expression in each experimental group was normalized to the relative gene expression found in HUVECs, HUAECs or undifferentiated hESCs. Primer sequences are published in Table 7 of expanded materials and methods.

[5] = tested on: microvessels formed by HUAECs; assay: Matrigel assay, disruption of vascular networks; format: cell-based, human; details: 1 μM, 20 h, on top of Matrigel
Protocol: (§4) To test the 7-Cyclo properties in the disruption of vascular networks, microvessels of hESC-derived ECs, HUAECs and HAECs were formed on top of Matrigel and then exposed to the drug for 20 h.
(§5) A 24-well plate was coated with Matrigel (0.4 mL, BD Biosciences) per well and incubated at 37° C. for 30 min. Cells were seeded on top of the polymerized Matrigel at a concentration of 1×10^5 cells per 300 μL of EGM-2 medium. After 1 h of incubation at 37° C., an extra 1 mL of EGM-2 was added. After 12 h, medium supplemented with 7-Cyclo (0, 0.1 or 1 μM) was added. Cord formation was evaluated by phase contrast microscopy (Carl Zeiss International, Germany), at time 0, 3 h and 20 h after 7-Cyclo addition.

[6] = tested on: microvessels of hESC-derived ECs; assay: Matrigel assay, disruption of vascular networks; format: cell-based, human; details: 1 μM, 20 h, on top of Matrigel
Protocol: as §4, §5

[7] = tested on: microvessels formed by HAECs; assay: Matrigel assay, disruption of vascular networks; format: cell-based, human; details: 1 μM, 20 h, on top of Matrigel
Protocol: as §4, §5

[8] = flow 20 dyne/cm2, 1 μM for 24 h, versus static conditions
[9] = flow conditions, 1 μM for 24 h, ELISA

- down-regulation of DDAH-1 and DDAH-2 (HUAECs): No down-regulation
- cell morphology (hESC-derived ECs; flow 20 dyne/cm2, 1 μM for 24 h): significant alterations
- expression of DDAH1 and DDAH2 (hESC-derived ECs; [8]): statistically lower levels
- expression of inflammatory genes ICAM-1, E-selectin, HO-1 and eNOS (hESC-derived ECs; [8]): statistically higher levels
- secreted ADMA versus without the drug (hESC-derived ECs; [9]): 2.5 fold
- secreted vWFpp:vWF versus without the drug (hESC-derived ECs; [9]): 1.6 fold
- effect on gene expression ([4]; postnatal day 1 (p1) ECs, 1 μM for 24 h): no effect
Compound: Nc1ncnc2c1c(-c1ccc(Oc3ccccc3)cc1)cn2C1CCCC1 [7-Cyclo, 7-cyclopentyl-5-(4-phenoxy)phenyl-7H-pyrrolo[2,3-d]pyrimidin-4-ylamine]
- kinase activity versus time zero (luminescence) [1]: no significant decrease
- kinase activity versus time zero (luminescence) [2]: decreased significantly
- expression of inflammatory genes (HUAECs): only ICAM-1 and eNOS genes were up-regulated
- tube formation [3]: inhibits
- inflammation, oxidative stress sensing, vascular modulation and vascular injury sensing genes ([4]; mAEC at E12.5, 1 μM for 24 h, versus cells without treatment): statistically up-regulated
- effect on network length and number of sprouts in microvessels [5]: negligible effect
- network length and number of sprouts in microvessels [6]: statistically significant reduction
- effect on network length and number of sprouts in microvessels [7]: negligible effect
